Laboratory results reported in patent EP4596536A1 (Shanghai de Novo Pharmatech Co., Ltd., priority 2022, dated 2024).

Columns and labels:
[1] = target: T1, TLR8 (Homo sapiens, UniProt Q9NR97); assay: HEK-BLUE-hTLR8 cell SEAP reporter assay (Quanti-Blue); format: cell-based; settings: HEK-BLUE-hTLR8 cells, 0.5 nM to 15 µM, 24 hours
T1 construct: host or cells: HEK293 (HEK-BLUE-hTLR8)
T1 sequence (Q9NR97 27-1041): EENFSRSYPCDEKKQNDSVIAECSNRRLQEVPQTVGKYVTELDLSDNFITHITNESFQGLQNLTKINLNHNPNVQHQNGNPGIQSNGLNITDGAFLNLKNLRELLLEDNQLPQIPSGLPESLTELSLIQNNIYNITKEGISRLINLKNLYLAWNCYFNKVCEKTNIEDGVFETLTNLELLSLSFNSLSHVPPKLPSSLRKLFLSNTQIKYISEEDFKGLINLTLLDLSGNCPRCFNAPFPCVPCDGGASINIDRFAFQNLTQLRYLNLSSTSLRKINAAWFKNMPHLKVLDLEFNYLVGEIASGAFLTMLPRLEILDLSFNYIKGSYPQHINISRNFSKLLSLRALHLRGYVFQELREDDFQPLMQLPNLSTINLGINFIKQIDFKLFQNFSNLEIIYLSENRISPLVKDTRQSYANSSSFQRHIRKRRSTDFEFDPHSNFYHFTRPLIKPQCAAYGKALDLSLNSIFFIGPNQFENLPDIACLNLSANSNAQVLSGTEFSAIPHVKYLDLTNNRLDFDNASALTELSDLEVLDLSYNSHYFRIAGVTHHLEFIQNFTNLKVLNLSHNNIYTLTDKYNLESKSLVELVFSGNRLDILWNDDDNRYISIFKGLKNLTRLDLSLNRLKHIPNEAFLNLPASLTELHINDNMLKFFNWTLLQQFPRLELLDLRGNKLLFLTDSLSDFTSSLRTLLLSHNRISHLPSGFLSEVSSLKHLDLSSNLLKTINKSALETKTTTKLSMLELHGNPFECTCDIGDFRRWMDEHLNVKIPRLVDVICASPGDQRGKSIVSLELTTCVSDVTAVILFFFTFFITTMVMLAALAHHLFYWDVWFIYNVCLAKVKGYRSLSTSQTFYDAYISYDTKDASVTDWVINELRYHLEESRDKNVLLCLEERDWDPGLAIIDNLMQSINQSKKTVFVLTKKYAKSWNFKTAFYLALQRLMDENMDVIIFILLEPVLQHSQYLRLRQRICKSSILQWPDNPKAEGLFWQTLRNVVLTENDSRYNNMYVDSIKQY
Experimental: (§1) In this experiment, the biological activity of TLR7 and TLR8 in the compound of formula I was detected using cell tests. This method was conducted in human embryonic kidney cells (HEK293) expressing TLR family members such as TLR4, TLR7, TLR8 or TLR9. TLR agonists activate TLRs, triggering the activation of downstream NF-kB, which in turn activates the secreted embryonic alkaline phosphatase (SEAP) reporter gene. The activity of SEAP was detected using the Quanti-Blue (InvivoGen) reagent, thereby reflecting the activities of TLR7 and TLR8 agonists.
(§2) The detailed experimental method was as follows: HEK-BLUE-hTLR7 and HEK-BLUE-hTLR8 cell lines were purchased from Invivogen Company and cultured in DMEM medium containing 4.5 g/L glucose (Sigma-Aldrich) and 10% fetal bovine serum under the conditions of temperature 37°C, humidity 95% and 5% CO2.
(§3) The compound was tested at a concentration ranging from 0.5 nM to 15 µM over a total of 10 concentration gradients. TLR7 or TLR8 agonists with known activity were added as positive controls, and 1 µL of DMSO was added as a negative control.
(§4) The cells were treated as follows: the cells were removed from the culture dish and centrifuged to remove the medium, and resuspended in a T-150 bottle with 10 mL of preheated PBS, 12 mL of preheated medium was added, and the cells were gently pipetted up and down and counted under a microscope. A 200,000/mL single-cell suspension was immediately prepared with medium and added to a 96-well plate at 200 µL/well (40,000/well). The final concentration of DMSO was 0.5%.
(§5) The compound was added and incubated in an incubator at 37°C, 5% CO2 for 24 hours.
(§6) A supernatant at 20 µL/well was aspirated into 180 µL of preheated Quanti-Blue at 37°C, incubated at 37°C for 1.5 hours, and detected for the absorbance (OD value) with a spectrophotometer at 650 nm. The formula for calculating the agonistic effect is as follows:
(§7) Effect % = (average OD value of the drug-administered group - average OD value of the DMSO group) / (average OD value of the positive drug group - average OD value of the DMSO group) × 100
(§8) Graphpad software was used to fit the concentration-effect curve, and EC50 was calculated. The test results are shown in Table 15 (A denotes < 250 nM, B denotes 250 nM-1 µM, C denotes 1 µM-2 µM, D denotes > 2 µM, and - denotes not listed or not tested): Table 15

[2] = target: T2, TLR7 (Homo sapiens, UniProt Q9NYK1); assay: HEK-BLUE-hTLR7 cell SEAP reporter assay (Quanti-Blue); format: cell-based; settings: HEK-BLUE-hTLR7 cells, 0.5 nM to 15 µM, 24 hours
T2 construct: host or cells: HEK293 (HEK-BLUE-hTLR7)
T2 sequence (Q9NYK1 27-1049): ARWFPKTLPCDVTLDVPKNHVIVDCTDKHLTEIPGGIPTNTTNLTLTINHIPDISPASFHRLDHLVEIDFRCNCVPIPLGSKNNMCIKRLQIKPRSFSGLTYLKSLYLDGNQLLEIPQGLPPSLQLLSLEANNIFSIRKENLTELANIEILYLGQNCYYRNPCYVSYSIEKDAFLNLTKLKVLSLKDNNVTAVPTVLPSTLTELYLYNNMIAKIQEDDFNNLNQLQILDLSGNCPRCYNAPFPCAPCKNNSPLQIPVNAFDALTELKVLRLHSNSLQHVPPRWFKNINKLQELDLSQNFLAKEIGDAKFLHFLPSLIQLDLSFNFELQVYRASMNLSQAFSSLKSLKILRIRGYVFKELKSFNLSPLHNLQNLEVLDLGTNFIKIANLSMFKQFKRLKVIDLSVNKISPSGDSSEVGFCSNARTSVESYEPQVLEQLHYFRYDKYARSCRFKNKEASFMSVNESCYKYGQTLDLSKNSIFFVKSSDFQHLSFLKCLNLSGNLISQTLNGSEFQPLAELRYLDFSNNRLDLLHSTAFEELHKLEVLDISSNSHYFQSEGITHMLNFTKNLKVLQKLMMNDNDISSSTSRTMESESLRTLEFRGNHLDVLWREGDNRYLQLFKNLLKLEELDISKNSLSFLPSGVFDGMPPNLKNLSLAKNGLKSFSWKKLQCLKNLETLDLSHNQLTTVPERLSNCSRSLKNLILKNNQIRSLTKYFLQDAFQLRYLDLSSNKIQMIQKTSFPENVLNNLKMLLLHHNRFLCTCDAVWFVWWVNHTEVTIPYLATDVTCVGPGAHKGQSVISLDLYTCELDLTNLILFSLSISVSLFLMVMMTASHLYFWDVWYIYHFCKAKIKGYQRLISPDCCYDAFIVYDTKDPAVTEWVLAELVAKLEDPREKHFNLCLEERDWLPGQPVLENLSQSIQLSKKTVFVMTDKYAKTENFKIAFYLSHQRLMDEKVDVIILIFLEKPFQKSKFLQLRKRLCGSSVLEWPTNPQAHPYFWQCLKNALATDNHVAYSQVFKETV
Experimental: as §1, §2, §3, §4, §5, §6, §7, §8

Structure (SMILES) | EC50 [1] [µM] | EC50 [2] [µM]
CCCN(CCO)C(=O)C1=Cc2ccc(C3(C(=O)Nc4cncc(CN)c4)CC3)cc2N=C(N)C1 [Compound 7, 2-amino-8-(1-((5-(aminomethyl)pyridin-3-yl)carbamoyl)cyclopropyl)-N-(2-hydroxyethyl)-N-propyl-3H-benzo[b]azepine-4-formamide] | < 0.25 | > 2
CCCN(CCO)C(=O)C1=Cc2c(F)cc(C3(C(=O)Nc4cnc5c(c4)CNCC5)CC3)cc2N=C(N)C1 [Compound 6, 2-amino-6-fluoro-N-(2-hydroxyethyl)-N-propyl-8-(1-((5,6,7,8-tetrahydro-1,6-naphthyridin-3-yl)carbamoyl)cyclopropyl)-3H-benzo[b]azepine-4-formamide] | 0.25 to 1 | > 2
CCCN(CCC)C(=O)C1=Cc2c(F)cc(C3(C(=O)Nc4cnc5c(c4)CNCC5)CC3)cc2N=C(N)C1 [Compound 3, 2-amino-6-fluoro-N,N-dipropyl-8-(1-((5,6,7,8-tetrahydro-1,6-naphthyridin-3-yl)carbamoyl)cyclopropyl)-3H-benzo[b]azepine-4-formamide] | < 0.25 | > 2
CCCN(CCC)C(=O)C1=Cc2ccc(C3(C(=O)Nc4cnc5c(c4)CNCC5)CC3)cc2N=C(N)C1 [Compound 1, 2-amino-N,N-dipropyl-8-(1-((5,6,7,8-tetrahydro-1,6-naphthyridin-3-yl)carbamoyl)cyclopropyl)-3H-benzo[b]azepine-4-formamide] | < 0.25 | > 2
CCCN(CCO)C(=O)C1=Cc2ccc(C3(C(=O)Nc4cnc5c(c4)CNCC5)CC3)cc2N=C(N)C1 [Compound 2, 2-amino-N-(2-hydroxyethyl)-N-propyl-8-(1-((5,6,7,8-tetrahydro-1,6-naphthyridin-3-yl)carbamoyl)cyclopropyl)-3H-benzo[b]azepine-4-formamide] | 0.25 to 1 | > 2
